Experiments:
[1] = system: LS180; experiment: Growth inhibition, CyQUANT Direct Cell Proliferation Assay, LS180; type: cell-based; conditions: Homo sapiens; LS180 cells, 120 to 168 hours
Procedure: (§1) SKCO1, LS180, and LS174T cell lines were purchased from ATCC. CW2 cell line was purchased from Riken. GP2D cell line was purchased from Sigma/ECACC. All cell lines were cultured in manufacturer's recommended media at 37° C., 5% CO2. Briefly, cells were suspended in 200 μL of media and seeded at 300 to 1,800 cells per well in tissue culture treated 96-well plates with black walls and clear bottom. Plates were incubated overnight and initial (TO) read was performed the following day using CyQUANT Direct Cell Proliferation Assay Kit (Thermo Fisher Scientific) according to manufacturer's protocol. All compounds were solubilized in DMSO and prepared at 3-fold serial dilution, using 9 points starting at 30 μM as highest concentration, administered to cells and incubated for 120 to 168 hours, at which point CyQUANT assay measurement was performed using Acumen Cellista instrument (Ex/Em 480/520 nm). Media-only wells were used as blank, and 0.3% DMSO was used as DMSO-treated cell control. Growth inhibition (percent response) was calculated using the following formula in Excel: “=if ([Compound treated Day N]>[Untreated Day 0, AVG], ([Compound treated Day N]− [Untreated Day 0, AVG])/([Untreated Day N]−[Untreated Day 0, AVG])*100, ([Compound Treated Day N]−[Untreated Day 0, AVG])/([Untreated Day 0, AVG])*100)”. GI50 is the response corresponding to the 50% of untreated control.
(§2) GI50 data are reported in Tables 4a, 4b, 4c, 4d, and 4e for compounds in Table 1. In Tables 4a, 4b, 4c, 4d, and 4e below, According to the code, A represents a GI50 value of ≤0.1 μM, B represents a GI50 value >0.1 μM and ≤1 μM, C represents an GI50 value >1 μM.

[2] = system: GP2D; experiment: Growth inhibition, CyQUANT Direct Cell Proliferation Assay, GP2D; type: cell-based; conditions: GP2D cells, 120 to 168 hours
Procedure: as §1, §2

[3] = system: LS174T; experiment: Growth inhibition, CyQUANT Direct Cell Proliferation Assay, LS174T; type: cell-based; conditions: Homo sapiens; LS174T cells, 120 to 168 hours
Procedure: as §1, §2

[4] = target: T1, CK1α (Homo sapiens, UniProt P48729+Q96SW2); experiment: CK1α NanoBit Assay (HiBiT-tagged CSNK1A1 in HEK293 cells, luminescence); type: cell-based; conditions: 24 h
T1 construct: HEK293 clonal lines with CRISPR KI HiBiT tag on CSNK1A1; host or cells: HEK293 clonal line, CRISPR knock-in HiBiT at the CSNK1A1 locus, stably expressing LgBiT
Outline: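 HEK293 with endogenous HiBiT-tagged CSNK1A1 and stable LgBiT, live-cell Endurazine substrate; compound added at 10 or 30 μM final top concentration after 16 h plating, then 24 h at 37 °C. Luminescence normalised to plate controls; DC50 by 3-parameter logistic fit, hill slope 1.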

[5] = target: CRBN/DDB1 (Homo sapiens, UniProt Q96SW2); experiment: HTRF binding assay (displacement of Cy5-thalidomide probe from CRBN/DDB1); conditions: CRBN/DDB1 2.5 nM, Cy5-Thalidomide 100 nM, 30 min; geometric mean; read-out: HTRF_Thali_Disp_DR_geo_IC50
Outline: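 HTRF displacement of Cy5-thalidomide probe (100 nM) from His-tagged CRBN/DDB1 (2.5 nM) with anti-His terbium cryptate, in HEPES/NaCl/TCEP/EDTA/Tween20 buffer; 10-point 1:3 series, 30 min at ambient temperature. 665/620 nm ratio fitted 4-parameter logistic for IC50; Ki via Cheng-Prusoff.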

[6] = system: SKCO1; experiment: Growth inhibition, CyQUANT Direct Cell Proliferation Assay, SKCO1; type: cell-based; conditions: Homo sapiens, SK-CO-1; SKCO1 cells, 120 to 168 hours
Procedure: as §1, §2

[7] = system: CW2; experiment: Growth inhibition, CyQUANT Direct Cell Proliferation Assay, CW2; type: cell-based; conditions: Homo sapiens, CW-2; CW2 cells, 120 to 168 hours
Procedure: as §1, §2

T1 sequence (P48729 whole entry): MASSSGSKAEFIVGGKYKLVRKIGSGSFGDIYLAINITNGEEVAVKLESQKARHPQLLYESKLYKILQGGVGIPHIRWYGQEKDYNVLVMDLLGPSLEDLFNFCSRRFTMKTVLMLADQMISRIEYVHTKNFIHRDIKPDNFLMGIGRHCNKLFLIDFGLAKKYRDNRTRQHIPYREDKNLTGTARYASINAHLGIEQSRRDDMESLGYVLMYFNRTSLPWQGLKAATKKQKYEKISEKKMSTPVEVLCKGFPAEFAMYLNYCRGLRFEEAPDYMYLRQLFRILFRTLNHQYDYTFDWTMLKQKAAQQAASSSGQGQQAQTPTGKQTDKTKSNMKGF
T1 sequence (Q96SW2 whole entry): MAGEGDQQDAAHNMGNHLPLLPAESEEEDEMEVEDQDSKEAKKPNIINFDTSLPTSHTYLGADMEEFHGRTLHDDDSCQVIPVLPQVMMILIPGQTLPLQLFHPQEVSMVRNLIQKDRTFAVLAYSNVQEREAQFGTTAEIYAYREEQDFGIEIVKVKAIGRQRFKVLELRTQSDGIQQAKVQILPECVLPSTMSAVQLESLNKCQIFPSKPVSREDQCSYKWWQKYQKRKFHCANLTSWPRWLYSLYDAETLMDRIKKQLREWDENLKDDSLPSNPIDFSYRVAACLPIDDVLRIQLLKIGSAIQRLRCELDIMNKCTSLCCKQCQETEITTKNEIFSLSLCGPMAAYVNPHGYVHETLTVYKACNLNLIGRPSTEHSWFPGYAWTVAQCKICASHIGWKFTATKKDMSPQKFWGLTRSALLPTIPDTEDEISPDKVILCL
T1 sequence (Q16531 whole entry partner): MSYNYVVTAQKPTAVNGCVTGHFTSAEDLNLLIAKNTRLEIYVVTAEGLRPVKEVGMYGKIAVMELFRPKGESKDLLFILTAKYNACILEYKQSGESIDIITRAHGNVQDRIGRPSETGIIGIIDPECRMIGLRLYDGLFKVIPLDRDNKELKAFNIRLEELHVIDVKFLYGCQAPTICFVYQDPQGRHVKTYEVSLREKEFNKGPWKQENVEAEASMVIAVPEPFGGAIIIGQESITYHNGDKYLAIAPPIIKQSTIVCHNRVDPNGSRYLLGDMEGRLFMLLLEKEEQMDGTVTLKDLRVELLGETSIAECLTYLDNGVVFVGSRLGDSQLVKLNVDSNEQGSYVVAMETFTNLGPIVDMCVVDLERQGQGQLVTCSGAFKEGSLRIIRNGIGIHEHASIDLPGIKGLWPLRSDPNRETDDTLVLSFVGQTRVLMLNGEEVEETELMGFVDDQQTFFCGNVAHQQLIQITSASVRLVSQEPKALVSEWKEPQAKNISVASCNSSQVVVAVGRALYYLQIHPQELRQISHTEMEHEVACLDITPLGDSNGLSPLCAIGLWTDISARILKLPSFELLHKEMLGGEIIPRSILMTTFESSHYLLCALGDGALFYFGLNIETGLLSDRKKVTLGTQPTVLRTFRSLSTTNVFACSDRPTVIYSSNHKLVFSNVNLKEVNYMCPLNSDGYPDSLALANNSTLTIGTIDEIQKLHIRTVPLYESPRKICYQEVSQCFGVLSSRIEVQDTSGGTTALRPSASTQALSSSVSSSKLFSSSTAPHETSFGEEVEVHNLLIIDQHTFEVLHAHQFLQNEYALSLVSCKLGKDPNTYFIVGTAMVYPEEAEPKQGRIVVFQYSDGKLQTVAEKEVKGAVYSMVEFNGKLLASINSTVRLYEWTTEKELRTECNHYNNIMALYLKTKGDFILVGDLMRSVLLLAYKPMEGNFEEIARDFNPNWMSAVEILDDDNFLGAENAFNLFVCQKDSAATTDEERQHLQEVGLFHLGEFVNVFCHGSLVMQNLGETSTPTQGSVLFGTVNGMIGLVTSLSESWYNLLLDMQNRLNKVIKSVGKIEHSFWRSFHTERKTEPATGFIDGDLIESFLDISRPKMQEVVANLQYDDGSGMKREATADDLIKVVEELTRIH
Sequence of CRBN/DDB1 (Q96SW2 whole entry): as the sequence (Q96SW2 whole entry) above
Sequence of CRBN/DDB1 (Q16531 whole entry partner): as the sequence (Q16531 whole entry partner) above

Row | DC50 [4] [µM] | IC50 [5] [nM] | GI50 [6] [nM] | Structure (SMILES) | GI50 [1] [nM] | GI50 [2] [nM] | GI50 [3] [nM] | GI50 [7] [nM]
1 | ≤ 0.1 | 100 to 1000 | 100 to 1000 | Cc1ccc(N2CCN(c3ccc4c(c3)CN(C3CCC(=O)NC3=O)C4=O)C2=O)cn1 (stereo not drawn) [Compound 104, 3-(5-(3-(6-methylpyridin-3-yl)-2-oxoimidazolidin-1-yl)-1-oxoisoindolin-2-yl)piperidine-2,6-dione] | 100 to 1000 | 100 to 1000 | 100 to 1000 | 100 to 1000
2 | ≤ 0.1 | 100 to 1000 | ≤ 100 | Cc1ccc(N2CCN(c3ccc4c(c3)CN(C3CCC(=O)NC3=O)C4=O)C2=O)cc1 (stereo not drawn) [Compound 111, 3-(1-oxo-5-(2-oxo-3-(p-tolyl)imidazolidin-1-yl)isoindolin-2-yl) piperidine-2,6-dione] | 100 to 1000 | 100 to 1000 | 100 to 1000 | ≤ 100
3 | ≤ 0.1 | > 1000 | ≤ 100 | O=C1CCC(N2Cc3cc(N4CCN(c5ccc(C6CC6)cc5)C4=O)ccc3C2=O)C(=O)N1 (stereo not drawn) [Compound 123, 3-(5-(3-(4-cyclopropylphenyl)-2-oxoimidazolidin-1-yl)-1-oxoisoindolin-2-yl)piperidine-2,6-dione] | 100 to 1000 | 100 to 1000 | ≤ 100 | ≤ 100
4 | ≤ 0.1 | 100 to 1000 | 100 to 1000 | O=C1CCC(N2Cc3cc(N4CCN(c5ccc(C(F)F)nc5)C4=O)ccc3C2=O)C(=O)N1 (stereo not drawn) [Compound 124, 3-(5-(3-(6-(difluoromethyl)pyridin-3-yl)-2-oxoimidazolidin-1-yl)-1-oxoisoindolin-2-yl)piperidine-2,6-dione] | 100 to 1000 | 100 to 1000 | ≤ 100 | ≤ 100
5 | ≤ 0.1 | 100 to 1000 | 100 to 1000 | O=C1CCC(N2Cc3cc(N4CCN(c5ccc(C(F)(F)F)nc5)C4=O)ccc3C2=O)C(=O)N1 (stereo not drawn) [Compound 126, 3-(1-oxo-5-(2-oxo-3-(6-(trifluoromethyl)pyridin-3-yl)imidazolidin-1-yl)isoindolin-2-yl)piperidine-2,6-dione] | 100 to 1000 | 100 to 1000 | 100 to 1000 | ≤ 100
6 | 0.1 to 1 | 100 to 1000 |  | COCc1ccccc1N1CCN(c2ccc3c(c2)CN(C2CCC(=O)NC2=O)C3=O)C1=O (stereo not drawn) [Compound 168, 3-(5-(3-(2-(methoxymethyl)phenyl)-2-oxoimidazolidin-1-yl)-1-oxoisoindolin-2-yl)piperidine-2,6-dione] |  |  |  | 
7 | 0.1 to 1 | 100 to 1000 |  | COC(C)c1ccccc1N1CCN(c2ccc3c(c2)CN(C2CCC(=O)NC2=O)C3=O)C1=O (stereo not drawn) [Compound 169, 3-(5-(3-(2-(1-methoxyethyl)phenyl)-2-oxoimidazolidin-1-yl)-1-oxoisoindolin-2-yl)piperidine-2,6-dione] |  |  |  | 
8 | 0.1 to 1 | ≤ 100 |  | O=C1CCC(N2Cc3cc(N4CCN(c5ccc6[nH]cnc6c5)C4=O)ccc3C2=O)C(=O)N1 (stereo not drawn) [Compound 170, 3-(5-(3-(1H-benzo[d]imidazol-5-yl)-2-oxoimidazolidin-1-yl)-1-oxoisoindolin-2-yl) piperidine-2,6-dione] |  |  |  | 
9 | 0.1 to 1 | 100 to 1000 |  | O=C1CCC(N2Cc3cc(N4CCN(C5CC6(COC6)C5)C4=O)ccc3C2=O)C(=O)N1 (stereo not drawn) [Compound 171, 3-(1-oxo-5-(2-oxo-3-(2-oxaspiro[3.3]heptan-6-yl)imidazolidin-1-yl)isoindolin-2-yl)piperidine-2,6-dione] |  |  |  | 
10 | > 1 | ≤ 100 |  | CN1Cc2cccc(N3CCN(c4ccc5c(c4)CN(C4CCC(=O)NC4=O)C5=O)C3=O)c2C1 (stereo not drawn) [Compound 172, 3-(5-(3-(2-methylisoindolin-4-yl)-2-oxoimidazolidin-1-yl)-1-oxoisoindolin-2-yl)piperidine-2,6-dione] |  |  |  | 
11 | > 1 | 100 to 1000 |  | Cc1ccc(N2C(=O)N(c3ccc4c(c3)CN(C3CCC(=O)NC3=O)C4=O)C[C@H]2C(F)F)cc1 (stereo partly drawn) [Compound 173, 3-(5-((S)-4-(difluoromethyl)-2-oxo-3-(p-tolyl)imidazolidin-1-yl)-1-oxoisoindolin-2-yl)piperidine-2,6-dione] |  |  |  | 
12 | > 1 | 100 to 1000 |  | O=C1CCC(N2Cc3cc(N4CCN(C5CN(c6ccccc6)C5)C4=O)ccc3C2=O)C(=O)N1 (stereo not drawn) [Compound 174, 3-(1-oxo-5-(2-oxo-3-(1-phenylazetidin-3-yl)imidazolidin-1-yl)isoindolin-2-yl)piperidine-2,6-dione] |  |  |  | 
13 | > 1 | > 1000 |  | O=C1CCC(N2Cc3cc(N4CCN(c5cccc6nc[nH]c56)C4=O)ccc3C2=O)C(=O)N1 (stereo not drawn) [Compound 175, 3-(5-(3-(1H-benzo[d]imidazol-7-yl)-2-oxoimidazolidin-1-yl)-1-oxoisoindolin-2-yl) piperidine-2,6-dione] |  |  |  | 
14 | > 1 | ≤ 100 |  | CN1CC(c2ccc(N3CCN(c4ccc5c(c4)CN(C4CCC(=O)NC4=O)C5=O)C3=O)cc2)C1 (stereo not drawn) [Compound 176, 3-(5-(3-(4-(1-methylazetidin-3-yl)phenyl)-2-oxoimidazolidin-1-yl)-1-oxoisoindolin-2-yl)piperidine-2,6-dione] |  |  |  | 
15 | > 1 | 100 to 1000 |  | CN1CCCC1c1ccc(N2CCN(c3ccc4c(c3)CN(C3CCC(=O)NC3=O)C4=O)C2=O)cc1 (stereo not drawn) [Compound 177, 3-(5-(3-(4-(1-methylpyrrolidin-2-yl)phenyl)-2-oxoimidazolidin-1-yl)-1-oxoisoindolin-2-yl)piperidine-2,6-dione] |  |  |  | 
16 | > 1 | 100 to 1000 |  | O=C1CCC(N2Cc3cc(N4CCN(C5COC5)C4=O)ccc3C2=O)C(=O)N1 (stereo not drawn) [Compound 178, 3-(5-(3-(oxetan-3-yl)-2-oxoimidazolidin-1-yl)-1-oxoisoindolin-2-yl)piperidine-2,6-dione] |  |  |  | 
17 | > 1 | 100 to 1000 |  | O=C1CCC(N2Cc3cc(N4CCN(C(c5ccccc5)C(F)(F)F)C4=O)ccc3C2=O)C(=O)N1 (stereo not drawn) [Compound 179, 3-(1-oxo-5-(2-oxo-3-(2,2,2-trifluoro-1-phenylethyl)imidazolidin-1-yl)isoindolin-2-yl)piperidine-2,6-dione] |  |  |  | 
18 | > 1 | > 1000 |  | C[C@@H]1CN(c2ccc3c(c2)CN(C2CCC(=O)NC2=O)C3=O)C(=O)N1c1ccncn1 (stereo partly drawn) [Compound 180, 3-(5-((R)-4-methyl-2-oxo-3-(pyrimidin-4-yl)imidazolidin-1-yl)-1-oxoisoindolin-2-yl)piperidine-2,6-dione] |  |  |  | 
19 | > 1 | ≤ 100 |  | CC(C)C(=O)c1ccc(N2CCN(c3ccc4c(c3)CN(C3CCC(=O)NC3=O)C4=O)C2=O)cc1 (stereo not drawn) [Compound 181, 3-(5-(3-(4-isobutyrylphenyl)-2-oxoimidazolidin-1-yl)-1-oxoisoindolin-2-yl)piperidine-2,6-dione] |  |  |  | 
20 | > 1 | 100 to 1000 |  | C[C@@H]1CN(c2ccc3c(c2)CN(C2CCC(=O)NC2=O)C3=O)C(=O)N1c1ncccn1 (stereo partly drawn) [Compound 182, 3-(5-((R)-4-methyl-2-oxo-3-(pyrimidin-2-yl)imidazolidin-1-yl)-1-oxoisoindolin-2-yl)piperidine-2,6-dione] |  |  |  | 
21 | > 1 | 100 to 1000 |  | O=C1CCC(N2Cc3cc(N4CCN(C5CCOCC5)C4=O)ccc3C2=O)C(=O)N1 (stereo not drawn) [Compound 183, 3-(1-oxo-5-(2-oxo-3-(tetrahydro-2H-pyran-4-yl)imidazolidin-1-yl)isoindolin-2-yl)piperidine-2,6-dione] |  |  |  | 
22 | > 1 | 100 to 1000 |  | O=C1CCC(N2Cc3cc(N4CCN(C5CN(c6ccccn6)C5)C4=O)ccc3C2=O)C(=O)N1 (stereo not drawn) [Compound 184, 3-(1-oxo-5-(2-oxo-3-(1-(pyridin-2-yl)azetidin-3-yl)imidazolidin-1-yl)isoindolin-2-yl)piperidine-2,6-dione] |  |  |  | 
